# Patent publication US20250186405A1, “Compound For Use In Treating Narcolepsy” (Alkermes, Inc., priority 2023, published 2025)
# Read-outs that look alike come from different tables or passages of the source.
# Tests used:
# [1] = Part 5 NT2: plasma pharmacokinetics, single doses; assay type: in vivo, human; details: for Cmax / AUC(0-t) / Tmax: human, oral; for Cmax / AUC(0-t): geometric mean; for AUC(0-t): read-out: AUC0-24; for Tmax: plasma
# Method: Treatments were administered under fasted state. Dose levels were as follows:
# (§1) Subjects were randomized to 1 of 4 sequences.
# (§2) Blood samples (up to 5 mL per sample) were collected for PK analysis of Compound A and its metabolite(s). The actual time of sample collection was recorded. The PK samples of the subjects randomized to placebo treatment were not analyzed. Any remaining plasma PK samples were used to explore the presence of any additional metabolites and/or biomarkers.
# (§3) Plasma and urine concentrations of Compound A and its metabolite(s) were measured using a validated high-performance liquid chromatography with tandem mass spectrometry.
# (§4) The PK population was used for summaries of plasma Compound A and its metabolite(s) concentrations and for analyses, summaries, and listing of PK parameters. Dose proportionality for Cmax, AUC0-t, and AUC0-∞ was evaluated using a linear model of logarithmically transformed values to assess the slope parameter, and the 95% CI for the slope was estimated. Where a 95% CI of the slope includes 1, it was considered as evidence of dose proportionality for that PK parameter.
# [2] = Part 4 NT1: plasma pharmacokinetics, single doses; assay type: in vivo; details: human, oral; for Cmax / AUC(0-t): geometric mean
# Method: as §1, §2, §3, §4
# [3] = Part 2 MAD: plasma pharmacokinetics, once daily for 10 days; assay type: in vivo, human; details: for Cmax / AUC(0-t) / concentration at 8 h / Tmax / half-life / Vd/F: oral; for AUC(0-t): read-out: AUC0-24, ss; for concentration at 8 h: read-out: C8 (concentration at 8-hour postdose); for Vd/F: read-out: Vz/F
# Method: Part 2 of the study is a MAD evaluation in healthy subjects consisting of 4 cohorts: Cohorts 1-4 received powder-in-capsule or matching placebo. Dose levels were as follows:
# as §2, §3
# The plasma PK parameters of Compound A and its metabolite(s) were determined from the plasma concentration-time profiles for all evaluable subjects. Actual sampling times, rather than scheduled sampling times, were used in all computations involving sampling times. The below lower limit of quantitation concentrations were set to zero prior to PK parameter estimation.
# The PK population was used for summaries of plasma and urine Compound A and its metabolite(s) concentrations and for analyses, summaries, and listing of PK parameters. Accumulation ratio (Day 10/Day 1) for Cmax and AUC0-24 was estimated with 90% CIs using a linear fixed effects model on log-transformed parameters. Dose effect was assessed using a linear fixed effects model on log-transformed t1/2. Dose proportionality was assessed using a power model on Cmax and AUC0-24 on Day 1 and Day 10 separately. Within-subject and total standard deviations for log-transformed Cmax and AUC0-24 were estimated within a linear mixed effects framework.
# [4] = human, plasma, 3 mg, Day 1, geometric mean
# [5] = human, plasma, 3 mg, Day 10, geometric mean
# [6] = human, plasma, 8 mg, Day 1, geometric mean
# [7] = human, plasma, 8 mg, Day 10, geometric mean
# [8] = human, plasma, 15 mg, Day 1, geometric mean
# [9] = human, plasma, 15 mg, Day 10, geometric mean
# [10] = human, plasma, 25 mg, Day 1, geometric mean
# [11] = human, plasma, 25 mg, Day 10, geometric mean
compound,measurement,setting,value
"CS(=O)(=O)N[C@H]1CCCN2C(=O)COc3ccccc3C3CCC(CC3)OCC12 (stereo partly drawn) [Compound A, N-[(4S,4aR,7α,10α)-1,2,3,4,4a,5,7,8,9,10,16,17-dodecahydro-17-oxo-7,10-ethanopyrido[1,2-d][1,7,4]benzodioxaazacyclotridecin-4-yl]methanesulfonamide]",fold change in AUC and Cmax for 5-fold change in dose,"[1]; NT2 patients, 5 to 25 mg",approximately 3 fold
same,Cmax,"[1]; 5 mg, NT2, plasma, n = 8",13.4 ng/mL
same,AUC(0-t),"[1]; 5 mg, NT2, plasma, n = 8",78.1 ng·h/mL
same,Cmax,"[1]; 12 mg, NT2, plasma, n = 8",24 ng/mL
same,AUC(0-t),"[1]; 12 mg, NT2, plasma, n = 8",185 ng·h/mL
same,Cmax,"[1]; 25 mg, NT2, plasma, N = 9",38 ng/mL
same,AUC(0-t),"[1]; 25 mg, NT2, plasma, N = 9",231 ng·h/mL
same,Tmax,"[1]; 5 mg, NT2, plasma, median, n = 8, read-out: Tmax",1.75 h
same,Tmax,"[1]; 12 mg, NT2, plasma, median, n = 8, read-out: Tmax",2 h
same,Tmax,"[1]; 25 mg, NT2, plasma, median, N = 9, read-out: Tmax",3 h
same,Tmax,"[1]; 25 mg, NT2 patients, 5, 12, 25 mg, read-out: median tmax, range across doses",1.75 to 3 h
same,Tmax,"[2]; 1 mg, NT1, 1 mg single dose, median, N = 3, read-out: Tmax",1.5 h
same,Tmax,"[2]; 3 mg, NT1, 3 mg single dose, median, N = 4, read-out: Tmax",1.5 h
same,Tmax,"[2]; 8 mg, NT1, 8 mg single dose, median, N = 3, read-out: Tmax",3 h
same,Tmax,"[2]; 8 mg, NT1, single dose 1, 3 and 8 mg (range 0.5 to 4.0), read-out: median Tmax",1.5 h
same,Cmax,"[2]; NT1, 1 mg single dose, N = 3",4.39 ng/mL
same,AUC(0-t),"[2]; NT1, 1 mg single dose, N = 3, read-out: AUC0-24",19.5 ng·h/mL
same,Cmax,"[2]; NT1, 3 mg single dose, N = 4",11.6 ng/mL
same,AUC(0-t),"[2]; NT1, 3 mg single dose, N = 4, read-out: AUC0-24",59.1 ng·h/mL
same,Cmax,"[2]; NT1, 8 mg single dose, N = 3",27.9 ng/mL
same,AUC(0-t),"[2]; NT1, 8 mg single dose, N = 3, read-out: AUC0-24",169 ng·h/mL
same,Accumulation ratio (Day 10/Day 1) AUC0-24,[3]; 3 mg,1.36
same,Accumulation ratio (Day 10/Day 1) Cmax,[3]; 3 mg,1.68
same,CL/F,"[3]; 3 mg, Day 10, geometric mean",62.0 L/h
same,Ctrough,"[3]; 3 mg, Day 10, geometric mean",0.495 ng/mL
same,Accumulation ratio (Day 10/Day 1) AUC0-24,[3]; 8 mg,1.36
same,Accumulation ratio (Day 10/Day 1) Cmax,[3]; 8 mg,1.38
same,CL/F,"[3]; 8 mg, Day 10, geometric mean",55.7 L/h
same,Ctrough,"[3]; 8 mg, Day 10, geometric mean",2.07 ng/mL
same,Accumulation ratio (Day 10/Day 1) AUC0-24,[3]; 15 mg,1.23
same,Accumulation ratio (Day 10/Day 1) Cmax,[3]; 15 mg,1.15
same,CL/F,"[3]; 15 mg, Day 10, geometric mean",84.4 L/h
same,Ctrough,"[3]; 15 mg, Day 10, geometric mean",2.06 ng/mL
same,Accumulation ratio (Day 10/Day 1) AUC0-24,[3]; 25 mg,1.02
same,Accumulation ratio (Day 10/Day 1) Cmax,[3]; 25 mg,1.32
same,CL/F,"[3]; 25 mg, Day 10, geometric mean",108 L/h
same,Ctrough,"[3]; 25 mg, Day 10, geometric mean",4.51 ng/mL
same,Cmax,[3]; [4],5.6 ng/mL
same,AUC(0-t),[3]; [4],35.5 ng·h/mL
same,concentration at 8 h,[3]; [4],1.21 ng/mL
same,Tmax,"[3]; human, plasma, 3 mg, Day 1, median, read-out: Tmax",1.75 h
same,Cmax,[3]; [5],9.38 ng/mL
same,half-life,[3]; [5],9.63 h
same,AUC(0-t),[3]; [5],48.4 ng·h/mL
same,concentration at 8 h,[3]; [5],1.39 ng/mL
same,Tmax,"[3]; human, plasma, 3 mg, Day 10, median, read-out: Tmax",1.5 h
same,Cmax,[3]; [6],16 ng/mL
same,AUC(0-t),[3]; [6],104 ng·h/mL
same,concentration at 8 h,[3]; [6],3.89 ng/mL
same,Tmax,"[3]; human, plasma, 8 mg, Day 1, median, read-out: Tmax",1.75 h
same,Cmax,[3]; [7],22.1 ng/mL
same,half-life,[3]; [7],7.66 h
same,AUC(0-t),[3]; [7],141 ng·h/mL
same,concentration at 8 h,[3]; [7],4.6 ng/mL
same,Tmax,"[3]; human, plasma, 8 mg, Day 10, median, read-out: Tmax",1.75 h
same,Cmax,[3]; [8],25.2 ng/mL
same,concentration at 8 h,[3]; [8],3.41 ng/mL
same,Tmax,"[3]; human, plasma, 15 mg, Day 1, median, read-out: Tmax",1.5 h
same,Cmax,[3]; [9],28.9 ng/mL
same,half-life,[3]; [9],14 h
same,concentration at 8 h,[3]; [9],4.62 ng/mL
same,Tmax,"[3]; human, plasma, 15 mg, Day 10, median, read-out: Tmax",1.75 h
same,Tmax,"[3]; human, plasma, 25 mg, 3, 8, 15 and 25 mg, both Day 1 and Day 10 (range 1.0 to 6.0), read-out: median Tmax",1.75 h
same,Cmax,[3]; [10],28 ng/mL
same,concentration at 8 h,[3]; [10],7.35 ng/mL
same,Tmax,"[3]; human, plasma, 25 mg, Day 1, median, read-out: Tmax",1.25 h
same,Cmax,[3]; [11],36.9 ng/mL
same,half-life,[3]; [11],15.9 h
same,concentration at 8 h,[3]; [11],7.39 ng/mL
same,Tmax,"[3]; human, plasma, 25 mg, Day 10, median, read-out: Tmax",1.5 h
same,Vd/F,[3]; [5],862 L
same,Vd/F,[3]; [7],616 L
same,Vd/F,[3]; [9],1700 L
same,Vd/F,[3]; [11],2480 L
same,half-life at 10 days,"[3]; human, plasma, po, Day 10, 3 to 25 mg, read-out: terminal half-life following multiple oral dosing, range",8 to 16 h
same,steady state expected to be achieved by,"[3]; once daily dosing, from half-life",≤ 4 days
